# Measured values: paper PMC10459870, “A New Diterpenoid of Indonesian Scoparia dulcis Linn: Isolation and Cytotoxic Activity against MCF-7 and T47D Cell Lines” (Molecules, 2023)
# Experiments:
# T47D breast cancer cells [1] = test: Apoptosis induction, Annexin V/PI flow cytometry, T47D; assay type: cell-based
# Description: (§1) The method used in this study was the detected Annexin V method using flow cytometry, which allowed for observing the induction of apoptosis that occurs in cells following treatment. Annexin V is a member of a family of phospholipid-binding proteins that are strongly negatively charged on the cell membrane. Cell death resulting from apoptosis or necrosis can be differentiated using propidium iodide (PI) staining intercalation with DNA [24].
# (§2) This test was carried out on isolated samples (compound (1)). Culture confluent cells were distributed to 6-well plates, each 2000 µL (for treatment and for cell control). After 24 h of incubation, concentration series were made. The cells were washed with PBS, and 1000 µL of the sample solution with a certain concentration series was put in the well. For the control cells, 1000 µL of culture medium was added well. The cells were again incubated for 24 h in the CO incubator. After incubation, media from the 6-well plates were inserted into a conical tube, then washed with 1000 µL PBS and put into the same conical tube. Then, 200 µL trypsin-EDTA 0.25% was added and incubated for 3 min. Then, 1000 µL of culture medium was also added and resuspended until the cells were released one by one. The cells are then transferred to a conical and centrifuged at 2000 rpm for 3 min. For cell cycle observations, a deep cell precipitates conical tube covered with aluminum foil was dissolved with 400 µL of the PI reagent containing 1 mg/mL PI, 10 mg/mL RNAse, and 0.1% (v/v) Triton-X 100. The cells were resuspended and incubated for 5 min, and then the cell suspension was transferred into a flow cytometry tube for analysis (Ayers et al., 2011). For observations of apoptosis, the supernatant was discarded, then 100 µL of Annexin-V-FLUOS staining was added consisting of 100 µL binding buffer, 2 µL Annexin V, and 2 µL PI. This was followed by incubation in a dark space for 10 min and then analysis using a flow cytometer.
# [2] = tested on: MCF-7 breast cancer cells; test: MTT cytotoxic activity assay, MCF-7; assay type: cell-based; conditions: for IC50: Homo sapiens, MCF7, MTT, 24 h treatment, mean ± SD; for Selectivity Index (SI) MCF-7: IC50 Vero / IC50 MCF-7
# Description: (§3) A cytotoxic test was performed to obtain an overview of the activity of the sample on the inhibition of cancer cells. The parameter used was the inhibition concentration of 50% (IC50), a concentration that inhibits cells by 50% of the cell population. The IC50 value was calculated from the results of a linear regression between log concentration and the percentage of cell viability.
# (§4) The cell lines were obtained from the Parasitology Laboratory, Faculty of Medicine, Universitas Gadjah Mada, Yogyakarta, Indonesia. Each MCF-7 and T47D cell was cultured with complete media, namely, DMEM media for MCF-7 and RPMI for T47D, which contained 10% FBS, 2% penicillin–streptomycin, and 0.5% fungzon. Cultures were stored in a 5% CO2 incubator and for harvesting cells using trypsin, as well as sample solvents using DMSO.
# (§5) Compound (1) was tested for its cytotoxic activity using an MTT assay on MCF-7 and T47D breast cancer cells. Briefly, 1 × 10^4 MCF-7 and T47D cells/wells were grown in 96 well plates and incubated for 24 h in a CO2 incubator. The cells were treated with sample concentrations of 200, 100, 50, 25, 12.5, and 6.25 μg/mL for MCF-7 and 50, 25, 12.5, 6.25, 3.125, and 1.5625 μg/mL for T47D and then incubated for 24 h in a CO2 incubator. After incubation, the condition of the cells was observed under a microscope. The cell media was discarded followed by washing with phosphate-buffered saline (PBS). Then 0.5 mg/mL MTT reagent, up to 100 µL, was added to each well followed by incubation again for 4 h in a CO2 incubator. The cells were observed under a microscope, and after the formazan was clear, 100 µL of SDS stopper reagent was added in 0.01 N HCl. The plate was incubated at room temperature in a dark place for 1 × 24 h, then the absorbance was read with a microplate reader at a wavelength of 595 nm. Analysis of the absorbance data for the cytotoxic test was carried out by calculating the percentage of viable cells using the following formula.
# (§6) IC50 values were calculated using a linear regression between sample concentrations and the percent (%)cell viability.
# T47D breast cancer cells [3] = test: MTT cytotoxic activity assay, T47D; assay type: cell-based; conditions: for IC50: Homo sapiens, T47D, MTT, 24 h treatment, mean ± SD; for Selectivity Index (SI) T47D: IC50 Vero / IC50 T47D
# Description: as §3, §4, §5, §6
# [4] = tested on: MCF-7 breast cancer cells; test: Cell cycle distribution by flow cytometry (PI), MCF-7; assay type: cell-based
# Description: (§7) Cell cycle inhibition and apoptosis induction tests were carried out on compound (1). The analysis was performed using the flow cytometry method to determine the percentage of living cells in each phase of the cell cycle.
# as §2
# Vero cells = test: MTT cytotoxic activity assay, Vero; assay type: cell-based; conditions: Chlorocebus sabaeus, mean ± SD
# T47D breast cancer cells [5] = test: Cell cycle distribution by flow cytometry (PI), T47D; assay type: cell-based
# Description: as §7
# as §2, with “The cells were resuspended and incubated for 5 min, and then the cell suspension was transferred into a flow cytometry tube for analysis (Ayers et al., 2011). For observations of apoptosis, the supernatant was discarded, then 100 µL of Annexin-V-FLUOS staining was added consisting of 100 µL binding buffer, 2 µL Annexin V, and 2 µL PI. This was followed by incubation in a dark space for 10 min and then analysis using a flow cytometer.” left out
# [6] = tested on: MCF-7 breast cancer cells; test: Apoptosis induction, Annexin V/PI flow cytometry, MCF-7; assay type: cell-based
# Description: as §1, §2
# PPAR-γ = conditions: reported in the literature; read-out: EC50, agonistic activity against PPAR-γ; cited from earlier work
smiles,measurement,setting,value
"C=C1CC(OC(=O)c2ccccc2)C2C(C)(CO)CC(O)CC2(C)C1CCC(C)=CCO (stereo not drawn) [Compound (1), 2α-hydroxyscopadiol]","Apoptosis against T47D, % Parent, P3 (early apoptosis)","T47D breast cancer cells [1]; 1/2 IC50, 24 h",6.1%
same,"Apoptosis against T47D, % Parent, P4 (late apoptosis)","T47D breast cancer cells [1]; 1/2 IC50, 24 h",3.0%
same,"Apoptosis against T47D, % Parent, P3 (early apoptosis)","T47D breast cancer cells [1]; 1/4 IC50, 24 h",5%
same,"Apoptosis against T47D, % Parent, P3 (early apoptosis)","T47D breast cancer cells [1]; 1 IC50, 24 h",24.8%
same,"Apoptosis against T47D, % Parent, P4 (late apoptosis)","T47D breast cancer cells [1]; 1 IC50, 24 h",2.9%
same,IC50,[2],70.6 ± 1.54 µg/mL
same,Selectivity Index (SI) MCF-7,[2],0.51
same,"cytotoxic activity class, MCF-7",[2]; grouped according to IC50,strong (“strong cytotoxic” IC50 is 10–100 µg/mL)
same,IC50,T47D breast cancer cells [3],< 3.12 µg/mL
same,Selectivity Index (SI) T47D,T47D breast cancer cells [3],> 3
same,"cytotoxic activity class, T47D",T47D breast cancer cells [3]; grouped according to IC50,very strong (“very strong cytotoxic”: IC50 < 10 µg/mL)
same,"% Parent, G1, Cell Cycles against MCF-7","[4]; 1/2 IC50, 24 h",76.5%
same,"% Parent, G2-M, Cell Cycles against MCF-7","[4]; 1/2 IC50, 24 h",17.2%
same,"% Parent, G1, Cell Cycles against MCF-7","[4]; 1 IC50, 24 h",78.4%
same,IC50,Vero cells,36.5 ± 1.41 µg/mL
same,"% Parent, G1, Cell Cycles against T47D","T47D breast cancer cells [5]; 1/2 IC50, 24 h",50.9%
same,"% Parent, G1, Cell Cycles against T47D","T47D breast cancer cells [5]; 1 IC50, 24 h",53.3%
same,"Apoptosis against MCF-7, % Parent, P3 (early apoptosis)","[6]; 1/2 IC50, 24 h",33.5%
same,"Apoptosis against MCF-7, % Parent, P4 (late apoptosis)","[6]; 1/2 IC50, 24 h",16.8%
same,"Apoptosis against MCF-7, % Parent, P4 (late apoptosis)","[6]; 1/4 IC50, 24 h",15.1%
same,"Apoptosis against MCF-7, % Parent, P3 (early apoptosis)","[6]; 1 IC50, 24 h",80.7%
same,"Apoptosis against MCF-7, % Parent, P4 (late apoptosis)","[6]; 1 IC50, 24 h",11.7%
"COc1cccc2c1C(=O)c1c(O)c3c(c(O)c1C2=O)C[C@@](O)(C(=O)CO)C[C@@H]3O[C@H]1C[C@H](N)[C@H](O)[C@H](C)O1 [Doxorubicin, reference compound]",IC50,[2],16.6 ± 5.85 µg/mL
same,Selectivity Index (SI) MCF-7,[2],4.2
same,IC50,T47D breast cancer cells [3],35.1 ± 3.14 µg/mL
same,Selectivity Index (SI) T47D,T47D breast cancer cells [3],< 3
same,IC50,Vero cells,69.5 ± 6.8 µg/mL
"C=C1[C@@H](OC(C)=O)[C@H](OC(=O)c2ccccc2)[C@H]2[C@@](C)(CCC[C@]2(C)C(=O)O)[C@H]1CC/C(C)=C/CO [Compound (3), 4-epi-7α-O-acetylscoparic acid A]",EC50,PPAR-γ,900 ± 300 nM
